According to patent publication US12195482B1 (Arcus Biosciences, Inc., priority 2022, dated 2025):

Legend:
[1] = biological target: T1, p-AXL (Homo sapiens, UniProt P30530); experiment: Axl phosphorylation inhibition ELISA in HEK293T cells transfected with NanoLuc-tagged AXL; format: cell-based; details: 1 h compound incubation, media (OptiMEM)
T1 construct: expressed in transfected cells; host or cells: HEK293T
T1 sequence (P30530 26-894): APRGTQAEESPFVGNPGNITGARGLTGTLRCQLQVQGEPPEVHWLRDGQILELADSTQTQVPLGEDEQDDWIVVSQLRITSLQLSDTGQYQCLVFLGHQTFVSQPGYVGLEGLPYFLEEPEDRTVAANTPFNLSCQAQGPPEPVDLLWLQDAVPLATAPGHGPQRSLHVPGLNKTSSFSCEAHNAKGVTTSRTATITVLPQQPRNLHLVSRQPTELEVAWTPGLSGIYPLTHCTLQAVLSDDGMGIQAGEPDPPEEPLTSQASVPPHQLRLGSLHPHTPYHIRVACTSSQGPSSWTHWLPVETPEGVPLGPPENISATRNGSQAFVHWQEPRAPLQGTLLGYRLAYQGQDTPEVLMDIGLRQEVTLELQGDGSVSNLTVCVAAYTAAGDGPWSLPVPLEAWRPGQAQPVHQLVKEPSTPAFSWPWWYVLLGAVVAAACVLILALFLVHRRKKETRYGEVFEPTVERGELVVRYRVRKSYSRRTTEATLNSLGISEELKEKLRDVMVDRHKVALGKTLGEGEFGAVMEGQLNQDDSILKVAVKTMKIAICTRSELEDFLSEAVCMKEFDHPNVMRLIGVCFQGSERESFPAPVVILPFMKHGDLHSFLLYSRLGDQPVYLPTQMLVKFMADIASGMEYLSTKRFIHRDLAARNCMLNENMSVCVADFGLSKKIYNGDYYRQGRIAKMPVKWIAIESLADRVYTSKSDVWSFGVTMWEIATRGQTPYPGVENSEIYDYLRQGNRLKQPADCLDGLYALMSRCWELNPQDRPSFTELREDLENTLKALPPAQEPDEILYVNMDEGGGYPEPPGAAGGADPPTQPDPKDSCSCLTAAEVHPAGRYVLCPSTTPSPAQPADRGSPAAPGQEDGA
In short: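 HEK293T cells transiently transfected one day earlier with NanoLuc-tagged AXL were exposed to 22-point 2-fold compound dilutions for 1 h at 37° C (70,000 cells/well), then lysed. Lysates captured on anti-phospho-tyrosine coated plates for 2 h; bound p-AXL read by NanoLuc luminescence; IC50 from 4-parameter logistic fit.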

[2] = biological target: T2, Axl (Homo sapiens, UniProt P30530); experiment: Biochemical potency, HTRF KinEASE-TK kinase assay; parameters: purchased Invitrogen; details: 5 nM AXL, 700 μM ATP
T2 sequence (P30530 26-894): T1 sequence (P30530 26-894)
In short: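 Enzyme (AXL 5 nM; TYRO3 or MER 1 nM final) was preincubated with compound for 1 h at RT, then reacted for 2 h at RT with 800 nM biotinylated TK substrate and 700 µM ATP in HEPES pH 7.4, MgCl2, DTT, BSA, 1% DMSO. Percent activity came from the HTRF 665/620 ratio.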

Compound	IC50 [1]	IC50 [2]
Cc1cccnc1-c1nnc(-c2n[nH]c3ncc(-c4ccc5c(c4)CC[C@@H](N4C6COCC4C6)CC5)cc23)o1 [Example 25, 6-[(7S)-2-{3-[5-(3-Methylpyridin-2-yl)-1,3,4-oxadiazol-2-yl]-1H-pyrazolo[3,4-b]pyridin-5-yl}-6,7,8,9-tetrahydro-5H-benzo[7]annulen-7-yl]-3-oxa-6-azabicyclo[3.1.1]heptane]	< 100 nM	< 100 nM
Cc1ccc(C)c(-c2ccc(-c3n[nH]c4ncc(-c5ccc6c(c5)CC[C@@H](N5C7COC[C@H]5C7)CC6)cc34)c(F)c2)n1 [Example 143, (1R)-6-[(7S)-2-{3-[4-(3,6-Dimethylpyridin-2-yl)-2-fluorophenyl]-1H-pyrazolo[3,4-b]pyridin-5-yl}-6,7,8,9-tetrahydro-5H-benzo[7]annulen-7-yl]-3-oxa-6-azabicyclo[3.1.1]heptane]	100 to 1000 nM	< 100 nM
Cc1cc(F)cnc1-c1ccc(-c2c[nH]c3ncc(-c4ccc5c(c4)CC[C@@](C)(N4CCC[C@H]4C)CC5)cc23)cc1 [Example 34, 3-[4-(5-Fluoro-3-methylpyridin-2-yl)phenyl]-5-[(7S)-7-methyl-7-[(2R)-2-methylpyrrolidin-1-yl]-5,6,8,9-tetrahydrobenzo[7]annulen-3-yl]-1H-pyrrolo[2,3-b]pyridine]	< 100 nM	< 100 nM
c1cc2c(c(-c3ccc(-c4c[nH]c5ncc(-c6ccc7c(c6)CC[C@@H](N6C8COCC6C8)CC7)cc45)cc3)n1)OCCO2 [Example 194, 6-[(7S)-2-[3-(4-{2H,3H-[1,4]Dioxino[2,3-c]pyridin-5-yl}phenyl)-1H-pyrrolo[2,3-b]pyridin-5-yl]-6,7,8,9-tetrahydro-5H-benzo[7]annulen-7-yl]-3-oxa-6-azabicyclo[3.1.1]heptane]	< 100 nM	< 100 nM
Cc1ccc(C(N)=O)nc1-c1ccc(-c2c[nH]c3ncc(-c4ccc5c(c4)CC[C@@H](N4C6COCC4C6)CC5)cc23)cc1 [Example 76, 5-Methyl-6-(4-{5-[(7S)-7-{3-oxa-6-azabicyclo[3.1.1]heptan-6-yl}-6,7,8,9-tetrahydro-5H-benzo[7]annulen-2-yl]-1H-pyrrolo[2,3-b]pyridin-3-yl}phenyl)pyridine-2-carboxamide]	< 100 nM	< 100 nM

Continued, values first:

IC50 [1]	IC50 [2]	Compound
100 to 1000 nM	< 100 nM	Cc1cccnc1-c1ccc(-c2n[nH]c3ncc(-c4ccc5c(c4)CC(N4CCCC4)CC5)cc23)cc1 (stereo not drawn) [Example 67, 3-Methyl-2-(4-{5-[7-(pyrrolidin-1-yl)-5,6,7,8-tetrahydronaphthalen-2-yl]-1H-pyrazolo[3,4-b]pyridin-3-yl}phenyl)pyridine]
100 to 1000 nM	< 100 nM	Cc1cccnc1-c1ccc(-c2n[nH]c3ncc(-c4ccc5c(c4)CCN(C4CCCC4)CC5)cc23)cc1 [Example 24, 3-Cyclopentyl-7-{3-[4-(3-methylpyridin-2-yl)phenyl]-1H-pyrazolo[3,4-b]pyridin-5-yl}-2,3,4,5-tetrahydro-1H-3-benzazepine]
< 100 nM	< 100 nM	Cn1ncnc1-c1ccc(-c2n[nH]c3ncc(-c4ccc5c(c4)CC[C@@H](N4C[C@@H]6C[C@H]4CO6)CC5)cc23)cc1 [Example 135, (1S,4S)-5-[(7S)-2-{3-[4-(1-Methyl-1H-1,2,4-triazol-5-yl)phenyl]-1H-pyrazolo[3,4-b]pyridin-5-yl}-6,7,8,9-tetrahydro-5H-benzo[7]annulen-7-yl]-2-oxa-5-azabicyclo[2.2.1]heptane]
100 to 1000 nM	< 100 nM	COCCN1CCc2ccc(-c3cnc4[nH]nc(-c5ccc(-c6ncccc6C)cc5)c4c3)cc2CC1 [Example 15, 3-(2-Methoxyethyl)-7-{3-[4-(3-methylpyridin-2-yl)phenyl]-1H-pyrazolo[3,4-b]pyridin-5-yl}-2,3,4,5-tetrahydro-1H-3-benzazepine]
< 100 nM	< 100 nM	CO[C@H]1C[C@@H](N[C@H]2CCc3ccc(-c4cnc5[nH]nc(-c6ccc(-c7ncccc7C)cn6)c5c4)cc3CC2)C1 [Example 108, (7S)-2-(3-{3-Methyl-[2,3′-bipyridin]-6′-yl}-1H-pyrazolo[3,4-b]pyridin-5-yl)-N-[cis-3-methoxycyclobutyl]-6,7,8,9-tetrahydro-5H-benzo[7]annulen-7-amine]
< 100 nM	< 100 nM	Cc1cccnc1-c1cccc(-c2n[nH]c3ncc(-c4ccc5c(c4)CC[C@@H](N4C6COCC4C6)CC5)cc23)c1 [Example 81, 6-[(7S)-2-{3-[3-(3-Methylpyridin-2-yl)phenyl]-1H-pyrazolo[3,4-b]pyridin-5-yl}-6,7,8,9-tetrahydro-5H-benzo[7]annulen-7-yl]-3-oxa-6-azabicyclo[3.1.1]heptane]
< 100 nM	< 100 nM	Cc1ccc(C#N)c(-c2ccc(-c3n[nH]c4ncc(-c5ccc6c(c5)CC[C@@](C)(N5CCC[C@H]5C)CC6)cc34)cc2)n1 [Example 71, 6-Methyl-2-(4-{5-[(7S)-7-methyl-7-[(2R)-2-methylpyrrolidin-1-yl]-6,7,8,9-tetrahydro-5H-benzo[7]annulen-2-yl]-1H-pyrazolo[3,4-b]pyridin-3-yl}phenyl)pyridine-3-carbonitrile]
